The subject of this test is primary rat mixed cortical cells. Kind of test: In vitro myelination assay (MBP positive myelin strands, fold myelin pixels above background). To be noted: Rattus norvegicus; for fold induction at 1 µM: 1.0 μM compound; for fold induction at 10 µM: 10.0 μM compound. Format: cell-based. Put shortly:
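Compounds at 1.0 and 10.0 μM were incubated 14 days with dissociated P1 rat cortical cells, which were then fixed and immunostained for MBP. Myelination was scored as fold MBP myelin pixels per well over the no-compound baseline.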

Where [1] appears, read: relative to baseline of no added compound, read-out: Fold myelin pixels above background, 1.0 μM.
The mark [2] stands for this setting: relative to baseline of no added compound, read-out: Fold myelin pixels above background, 10.0 μM.
Setting [3] is: relative to baseline of no added compound, read-out: Fold myelin pixels above background.
Setting [4] is: read-out: Fold myelin pixels above background relative to baseline of no added compound.

Where two headings read alike, the source gives them in different places.

For the molecule `FC(F)c1cc(Nc2ncn(-c3ccccc3)n2)cc(N2CCN(C3COC3)CC2)c1` [Compound 26, N-[3-(difluoromethyl)-5-[4-(oxetan-3-yl)piperazin-1-yl]phenyl]-1-phenyl-1,2,4-triazol-3-amine], under setting [1], the fold induction at 1 µM was in the range of 100 to 1000. The fold induction at 10 µM under setting [2] was not above 1.
As to `Cc1cc(Nc2ncn(-c3ccc(F)c(Cl)c3)n2)cc(N2CCN(C3COC3)CC2)c1` [Compound 597, 1-(3-chloro-4-fluoro-phenyl)-N-[3-methyl-5-[4-(oxetan-3-yl)piperazin-1-yl]phenyl]-1,2,4-triazol-3-amine], under setting [3], the fold induction at 1 µM was in the range of 1 to 10 and the fold induction at 10 µM is not above 1.
For the molecule `Cc1cc(Nc2ncn(-c3ccncn3)n2)cc(C2CCCN(C3COC3)C2)c1` (centres unmarked) [Compound 180, N-[3-methyl-5-[1-(oxetan-3-yl)-3-piperidyl]phenyl]-1-pyrimidin-4-yl-1,2,4-triazol-3-amine], the fold induction at 1 µM under setting [1] was 100 to 1000. In addition, the fold induction at 10 µM under setting [2] is not above 1.
As to `Cc1cc(Nc2ncn(-c3cc(F)cc(F)c3)n2)cc([C@H]2CN(C3COC3)CCO2)c1` (single isomer, unassigned) [Compound 623], under setting [3], the fold induction at 1 µM fell in the range of 10 to 100 and the fold induction at 10 µM was in the range of 1 to 10.
As for `CCc1cc(Nc2ncn(-c3ccc(C(F)(F)F)cc3)n2)cc(N2CCN(C3COC3)CC2)c1` [Compound 322, N-[3-ethyl-5-[4-(oxetan-3-yl)piperazin-1-yl]phenyl]-1-[4-(trifluoromethyl)phenyl]-1,2,4-triazol-3-amine], the fold induction at 1 µM under setting [1] is 1 to 10. Under setting [2], the fold induction at 10 µM fell in the range of 1 to 10.
For the molecule `Cc1cc(Nc2ncn(-c3cc(F)cc(F)c3)n2)cc(N2CCN(C)C3(COC3)C2)c1` [Compound 349, 1-(3,5-difluorophenyl)-N-[3-methyl-5-(9-methyl-2-oxa-6,9-diazaspiro[3.5]nonan-6-yl)phenyl]-1,2,4-triazol-3-amine], under setting [1], the fold induction at 1 µM fell in the range of 10 to 100. Further, under setting [2], the fold induction at 10 µM is 100 to 1000.
The matching figures for `Fc1ccc(-n2cnc(Nc3cc(Cl)nc(N4CCOCC4)c3)n2)cc1F` [Compound 100, 2-chloro-N-[1-(3,4-difluorophenyl)-1,2,4-triazol-3-yl]-6-morpholino-pyridin-4-amine]: 100 to 1000 and 100 to 1000.
Take `Cc1cc(Nc2ncn(-c3ccccc3)n2)cc(N2CCN(C3CC3)C(=O)C2)c1` [Compound 214, l-cyclopropyl-4-[3-methyl-5-[(1-phenyl-1,2,4-triazol-3-yl)amino]phenyl]piperazin-2-one]: the fold induction at 1 µM under setting [1] was 10 to 100. In addition, the fold induction at 10 µM under setting [2] was in the range of 1000 to 10000.
For `COCc1ccccc1-n1cnc(Nc2cc(C)cc(N3CCN(C4COC4)CC3)c2)n1` [Compound 233, 1-[2-(methoxymethyl)phenyl]-N-[3-methyl-5-[4-(oxetan-3-yl)piperazin-1-yl]phenyl]-1,2,4-triazol-3-amine], under setting [1], the fold induction at 1 µM was not above 1. For the same molecule, the fold induction at 10 µM under setting [2] is not above 1.
Take `CC(=O)N1CC(CNc2cc(C)cc(Nc3ncn(-c4cc(F)cc(F)c4)n3)c2)C1` [Compound 1031, 1-[3-[[3-[[1-(3,5-difluorophenyl)-1,2,4-triazol-3-yl]amino]-5-methyl-anilino]methyl]azetidin-1-yl]ethanone]: under setting [4], the fold induction at 1 µM lay in the range of 10 to 100 and the fold induction at 10 µM was not above 1.
In the case of `Cc1cc(Nc2ncn(-c3cc(F)cc(F)c3)n2)cc(N2CCN(CC(C)O)CC2)c1` (centres unmarked) [Compound 995, 1-[4-[3-[[1-(3,5-difluorophenyl)-1,2,4-triazol-3-yl]amino]-5-methyl-phenyl]piperazin-1-yl]propan-2-ol], under setting [4], the fold induction at 1 µM was in the range of 10 to 100 and the fold induction at 10 µM is not above 1.
As for `CCc1cc(Nc2ncn(-c3ncncc3F)n2)cc(N2CCN(C3COC3)CC2)c1` [Compound 50, N-[3-ethyl-5-[4-(oxetan-3-yl)piperazin-1-yl]phenyl]-1-(5-fluoropyrimidin-4-yl)-1,2,4-triazol-3-amine], the fold induction at 1 µM under setting [1] was not above 1. The fold induction at 10 µM under setting [2] is 1000 to 10000.
Regarding `Cc1cc(Nc2ncn(-c3cc(F)cc(F)c3)n2)cc(N2CC(N3CCCC3=O)C2)c1` [Compound 542, 1-[1-[3-[[1-(3,5-difluorophenyl)-1,2,4-triazol-3-yl]amino]-5-methyl-phenyl]azetidin-3-yl]pyrrolidin-2-one], under setting [3], the fold induction at 1 µM is 10 to 100 and the fold induction at 10 µM lay in the range of 10 to 100.
`COc1cccc(-n2cnc(Nc3cc(Cl)nc(N4CCCCC4)c3)n2)c1` [Compound 106, 2-chloro-N-[1-(3-methoxyphenyl)-1,2,4-triazol-3-yl]-6-(1-piperidyl)pyridin-4-amine]: under setting [1], the fold induction at 1 µM was not above 1. For the same molecule, the fold induction at 10 µM under setting [2] fell in the range of 1 to 10.
For `Cc1cc(Nc2ncn(-c3cc(F)cc(F)c3)n2)nc(C2=CCNCC2)c1` [Compound 631, N-[1-(3,5-difluorophenyl)-1,2,4-triazol-3-yl]-4-methyl-6-(1,2,3,6-tetrahydropyridin-4-yl)pyridin-2-amine], under setting [3], the fold induction at 1 µM lay in the range of 1 to 10 and the fold induction at 10 µM fell in the range of 1 to 10.
With `Cc1cc(Nc2ncn(-c3cc(F)ccc3F)n2)cc(N2CCNCC2)c1` [Compound 558, 1-(2,5-difluorophenyl)-N-(3-methyl-5-piperazin-1-yl-phenyl)-1,2,4-triazol-3-amine], under setting [3], the fold induction at 1 µM was 10 to 100 and the fold induction at 10 µM is not above 1.
As to `Cc1ccc(-n2cnc(Nc3cc(C)cc(N4CCCC4)c3)n2)cc1` [Compound 372, N-(3-methyl-5-pyrrolidin-1-yl-phenyl)-1-(p-tolyl)-1,2,4-triazol-3-amine], the fold induction at 1 µM under setting [1] fell in the range of 1 to 10. In addition, under setting [2], the fold induction at 10 µM lay within 10 to 100.
With `Fc1cc(F)cc(-n2cnc(Nc3cc(N4CCN(C5COC5)CC4)cc(N4CCN(C5COC5)CC4)n3)n2)c1` [Compound 726, N-[1-(3,5-difluorophenyl)-1,2,4-triazol-3-yl]-4,6-bis[4-(oxetan-3-yl)piperazin-1-yl]pyridin-2-amine], under setting [3], the fold induction at 1 µM lay within 1 to 10 and the fold induction at 10 µM was in the range of 1 to 10.
Turning to `Fc1cc(Cl)cc(-n2cnc(Nc3cc(C4CC4)cc(N4CCN(C5COC5)CC4)c3)n2)c1` [Compound 400, 1-(3-chloro-5-fluoro-phenyl)-N-[3-cyclopropyl-5-[4-(oxetan-3-yl)piperazin-1-yl]phenyl]-1,2,4-triazol-3-amine], under setting [3], the fold induction at 1 µM lay in the range of 1000 to 10000 and the fold induction at 10 µM is not above 1.
Take `Cc1cc(Nc2ncn(-c3cc(F)cc(F)c3)n2)cc(N2CCN(C3CSC3)CC2)c1` [Compound 95, 1-(3,5-difluorophenyl)-N-[3-methyl-5-[4-(thietan-3-yl)piperazin-1-yl]phenyl]-1,2,4-triazol-3-amine]: the fold induction at 1 µM under setting [1] fell in the range of 10 to 100. Further, the fold induction at 10 µM under setting [2] is not above 1.
Regarding `[2H]C1([2H])N(c2cc(C)cc(Nc3ncn(-c4cc(F)cc(F)c4)n3)c2)C([2H])([2H])C([2H])([2H])N(C2CCCOC2)C1([2H])[2H]` (centres unmarked) [Compound 926, 1-(3,5-difluorophenyl)-N-[3-methyl-5-(2,2,3,3,5,5,6,6-octadeuterio-4-tetrahydropyran-3-yl-piperazin-1-yl)phenyl]-1,2,4-triazol-3-amine], under setting [4], the fold induction at 1 µM lay within 10 to 100 and the fold induction at 10 µM was in the range of 1 to 10.
With `Cc1cc(Nc2ncn(-c3cc(F)cc(F)c3)n2)cc(N2CC(C3COC3)C2)c1` [Compound 506, 1-(3,5-difluorophenyl)-N-[3-methyl-5-[3-(oxetan-3-yl)azetidin-1-yl]phenyl]-1,2,4-triazol-3-amine], under setting [3], the fold induction at 1 µM was 100 to 1000 and the fold induction at 10 µM fell in the range of 1 to 10.
As for `Cc1cc(Nc2ncn(-c3ccccc3)n2)cc(N2CCCC2)c1` [Compound 110, N-(3-methyl-5-pyrrolidin-1-yl-phenyl)-1-phenyl-1,2,4-triazol-3-amine], under setting [1], the fold induction at 1 µM was 100 to 1000. Further, the fold induction at 10 µM under setting [2] lay in the range of 1 to 10.
For the molecule `C1=C(c2cc(Nc3ncn(-c4ccccc4)n3)cc(C3=CCOCC3)c2)CCOC1` [Compound 315, N-[3,5-bis(3,6-dihydro-2H-pyran-4-yl)phenyl]-1-phenyl-1,2,4-triazol-3-amine], the fold induction at 1 µM under setting [1] fell in the range of 100 to 1000. Under setting [2], the fold induction at 10 µM lay within 100 to 1000.
In the case of `Cc1cc(Nc2ncn(-c3cc(C)cc(F)c3)n2)cc(N2CCN(C3COC3)CC2)c1` [Compound 323, 1-(3-fluoro-5-methyl-phenyl)-N-[3-methyl-5-[4-(oxetan-3-yl)piperazin-1-yl]phenyl]-1,2,4-triazol-3-amine], the fold induction at 1 µM under setting [1] was in the range of 1000 to 10000. Also, under setting [2], the fold induction at 10 µM fell in the range of 100 to 1000.
As for `CC(=O)N1CCN(c2cc(C)cc(Nc3ncn(-c4cc(F)cc(F)c4)n3)c2)CC1` [Compound 370, 1-[4-[3-[[1-(3,5-difluorophenyl)-1,2,4-triazol-3-yl]amino]-5-methyl-phenyl]piperazin-1-yl]ethanone], under setting [1], the fold induction at 1 µM fell in the range of 1000 to 10000. For the same molecule, under setting [2], the fold induction at 10 µM was in the range of 100 to 1000.
Consider `CC(=O)N1CCC(c2cc(C)cc(Nc3ncn(-c4ccccc4)n3)c2)CC1` [Compound 194, 1-[4-[3-methyl-5-[(1-phenyl-1,2,4-triazol-3-yl)amino]phenyl]-1-piperidyl]ethanone], for which the fold induction at 1 µM under setting [1] lay in the range of 1000 to 10000. Also, the fold induction at 10 µM under setting [2] is not above 1.
In the case of `N#Cc1cc(Nc2ncn(-c3ccc(F)c(F)c3)n2)cc(N2CCN(C3COC3)CC2)c1` [Compound 656, 3-[[1-(3,4-difluorophenyl)-1,2,4-triazol-3-yl]amino]-5-[4-(oxetan-3-yl)piperazin-1-yl]benzonitrile], under setting [3], the fold induction at 1 µM fell in the range of 1 to 10 and the fold induction at 10 µM was not above 1.

Source of the values: patent US10766869B2, “Triazoles for the treatment of demyelinating dieases” (Vertex Pharmaceuticals Incorporated, priority 2015, dated 2020).
